From patent publication US20260085293A1, “SOLUTION AND METHOD FOR TRANSPORTING OR STORING BODY FLUID SAMPLE” (PROVIGATE INC., priority 2023, published 2026)

Tested on: glycoalbumin
Experiment: Relative GA value of diluted pool serum with active ingredient after 2 days at 37° C., assayed by HPLC
Design: species or system human
Experimental: Examples will now be described. Blood samples were diluted with diluents containing active ingredients according to the embodiments of the present disclosure, and the GA values thereof were assayed by HPLC on the same day and after two days.
First, a solution containing 10 mM of HEPES and 150 mM of NaCl was prepared. The pH was 8.0. Into this solution, an active ingredient was mixed to prepare a diluent.
In Examples 1 to 4, pool serum was used as the blood samples. The pool serum was prepared by isolating serum from venous blood taken from multiple healthy subjects and then mixing. The resulting product was mixed with the diluent described above. Into 90 μL of the diluent, 10 μL of the blood serum was introduced to prepare a 10-fold dilution (10×) assay sample.
The sample was assayed on the same day (“day 0”) or was stored in a 37° C. constant temperature reservoir for two days (“day 2”) and then assayed.
For the assay conditions, “GA detection by HPLC method” J Chromatogr 597, 271-275 (1992) was referred. Columns used were AEX:Shodex-Asahipak ES-502N (7.5 mm ID ×100 mm) (Showa Denko K.K.) and BAC:TSKgel Boronate-5PW (4.6 mm ID×100 mm) (TOSOH CORPORATION). The eluents used were glycine (JIS special grade), magnesium chloride hexahydrate (JIS special grade), D(−)-sorbitol (Wako 1st grade), ethanol (99.5%, JIS special grade), tris(hydroxymethyl)aminomethane (Tris, Biotechnology grade), and EDTA-2Na. For the analysis, Prominence HPLC system (Shimadzu Corporation) equipped with a system controller was used.
In the graphs indicated in FIGS. 2 to 5, the vertical axis indicates the ratio (relative GA value) of the GA value assayed two days (day 2) after the preparation to the GA value measured on the same day (day 0) as the preparation. When assay was carried out multiple times, the average value is indicated.
Each of the additives was dissolved in the diluent to a predetermined concentration (0.1% to 0.5%) in w/v. For example, specifically, 570 μL of the diluent containing each additive was added to 30 μL of pool serum to prepare a 20× diluted liquid. The GA% of the day 0 sample and that of the day 2 sample left to stand still for 2 days in a 37° C. constant temperature reservoir were assayed by using HPLC.

[1] = 0.1 w/v% active ingredient in diluent
[2] = 0.2 w/v% active ingredient in diluent

| Structure (SMILES) | relative GA value (day 2 / day 0) [1] | relative GA value (day 2 / day 0) [2] | relative GA value (day 2 / day 0), in words (0.5 w/v% active ingredient in diluent, not illustrated) |
| --- | --- | --- | --- |
| OC[C@H]1O[C@H](O[C@H]2[C@H](O)[C@@H](O)[C@@H](O[C@H]3[C@H](O)[C@@H](O)C(O)O[C@@H]3CO)O[C@@H]2CO)[C@H](O)[C@@H](O)[C@@H]1O (mixture of isomers) [MT, maltotriose] | about 98.2 | about 99.8 | excessively large |
| CN[C@@H]1[C@@H](O)[C@@H](O[C@@H]2[C@@H](O)[C@H](O[C@H]3O[C@H]([C@@H](C)O)[C@@H](O)[C@H](O)[C@H]3N)[C@@H](N)C[C@H]2N)OC[C@]1(C)O [G418, reference compound] | about 98.2 | about 98.2 | – |
| CC(=O)N[C@H]1C(O)O[C@H](CO)[C@@H](O)[C@@H]1O[C@H](C)C(=O)O (stereo partly drawn) [NAM, N-acetylmuramic acid] | about 98.5 | about 99.0 | – |
| [H]/N=C(/N)N[C@H]1[C@H](O)[C@@H](O)[C@H](O[C@@H]2O[C@@H](C)[C@](O)(C=O)[C@H]2O[C@@H]2O[C@@H](CO)[C@H](O)[C@@H](O)[C@@H]2NC)[C@@H](N/C(N)=N\[H])[C@@H]1O [STR, streptomycin, reference compound] | about 100% | about 102% | – |
